Values after ≈ are worked out from the molar mass of the structure shown.

The conditions of this data set: buffer; pH 7.4; 200.0 µM.
In the case of `Cn1cc(C(=O)OCC(=O)NC2CCCCC2)c2ccccc21`, the kinetic solubility is 4.8 µg/mL (≈ 15.3 µM). With `Cc1cccc(-c2noc(CN(C)C(=O)c3ccoc3C)n2)c1` the figure was 40.9 µg/mL (≈ 131 µM); with `Cc1ccc(-c2ccc(S(=O)(=O)NCC3CCCO3)cc2)cc1` (configuration not stated), 1.6 µg/mL (≈ 4.83 µM). Next, `C=CCSc1nc(N2CCOCC2)c2c(c1C#N)CC(C)(C)N(C)C2`: 49.9 µg/mL (≈ 139 µM). Next, `CCOc1ccc(NC(=O)CCN2C(=S)NC(C)(C)CC2C)cc1` (configuration not stated): 41.5 µg/mL (≈ 119 µM); `N#CCN1CCCC(C(N)=O)C1` (configuration not stated): 19.6 µg/mL (≈ 117 µM).

In turn, `O=C1c2nccnc2C(=O)N1c1ccc(C(F)(F)F)cc1` came in with a kinetic solubility of 39.5 µg/mL (≈ 135 µM). With `O=C(O)c1ccccc1-c1ccccc1C(=O)NCc1ccccc1F` the figure was 38.4 µg/mL (≈ 110 µM); with `Cc1cc(C)cc(OCC(=O)Nc2nc(-c3cccnc3)cs2)c1`, 3.2 µg/mL (≈ 9.43 µM). Next, `O=[N+]([O-])c1ccc(CN2CCN(c3ccccc3Cl)CC2)o1`: 31.8 µg/mL (≈ 98.8 µM); `Cc1ccc(NC(=O)Nc2ccc3c(c2)CCC3)cc1`: below 0.3 µg/mL; `CCC(=O)Nc1ccc(C=C(C(C)=O)C(C)=O)cc1`: above 38.9 µg/mL. With `Cc1noc(C)c1COc1cccc(C(=O)OC(C)C#N)c1` (configuration not stated) the figure was 43.2 µg/mL (≈ 144 µM); with `CSC1=C(C#N)C(=O)NC(c2ccccc2O)S1` (configuration not stated), above 41.8 µg/mL; with `CC1CCCCN1C(=S)NC(=O)c1cccs1` (configuration not stated), above 40.3 µg/mL. On to `COc1nc(C)cc(C)c1S(=O)(=O)c1ccc(Cl)cc1`, for which the solubility (kinetic) turned out to be 1.7 µg/mL (≈ 5.45 µM). Next, `O=C(/C=C/c1cccc(F)c1)OCC(=O)c1ccc[nH]1`: 7.5 µg/mL (≈ 27.4 µM). With `Oc1ccc(-c2csc(Nc3ccccn3)n2)cc1` the figure was 5.3 µg/mL (≈ 19.7 µM); with `O=C(O)c1ccc(NCc2cccs2)cc1`, above 35 µg/mL; with `O=C(Cn1c(=S)[nH]c2ccccc2c1=O)NCCc1ccccc1`, 0.9 µg/mL (≈ 2.65 µM). Next, `Cc1ccc(NC(=O)CCC(=O)c2ccc(Cl)s2)nc1`: 7.5 µg/mL (≈ 24.3 µM); `CC(=O)N1CCN(CC(=O)Nc2cc([N+](=O)[O-])ccc2Cl)CC1`: 43.4 µg/mL (≈ 127 µM); `CC(=O)N1CCN(c2nnc(-c3ccc(C)cc3)c3ccccc23)CC1`: above 52 µg/mL. On to `O=C1OCc2ccc(NS(=O)(=O)c3ccc(C(F)(F)F)cc3)cc21`, for which the solubility (kinetic) is above 53.6 µg/mL.

`O=C(/C=C/c1ccccc1)NCCCNC(=O)/C=C/c1ccccc1` gave a solubility (kinetic) of 5 µg/mL (≈ 15 µM). Next, `CCc1ccc(NC(=O)NC2CCCCCCC2)cc1`: below 0.3 µg/mL. With `CCc1cccc(C)c1NC(=O)C1CCCN(S(C)(=O)=O)C1` (configuration not stated) the figure was above 48.7 µg/mL; with `O=[N+]([O-])c1ccc(Nc2ccccc2)c2nonc12`, above 38.4 µg/mL; with `Cc1cccc(N2CCN(C(=O)c3oc4ccc(Br)cc4c3C)CC2)c1C`, 4.3 µg/mL (≈ 10.1 µM). Next, `Cn1ccs/c1=N\C(=O)Nc1cccc(C(F)(F)F)c1`: above 45.2 µg/mL; `Cc1cccc2sc(NC(=O)CN3C(=O)NC4(CCCC4)C3=O)nc12`: 46.6 µg/mL (≈ 130 µM); `C=CCNC(=S)NNC(=O)C(CC(C)C)CC(C)O` (configuration not stated): above 43.1 µg/mL.

In turn, `O=C(O)Cn1c(=O)c2c3c(sc2n(Cc2ccc(F)cc2)c1=O)CCCC3` returned a kinetic solubility above 58.3 µg/mL.

In the case of `CC(=O)c1sc(NC(=O)CCCOc2ccccc2C)nc1C`, the kinetic solubility was below 0.4 µg/mL. With `Cc1ccc2c(c1)C1C[N+](C)(CC(=O)c3ccccc3)CCC1N2C(=O)c1ccccc1Cl.[Br-]` (configuration not stated) the figure was 78 µg/mL. With `N#Cc1ccc(-c2cccnc2)nc1SCC(=O)c1ccccc1` the figure was 2.8 µg/mL (≈ 8.45 µM); with `Cc1nc(Nc2ccccc2F)c2oc3ccccc3c2n1`, 0.3 µg/mL (≈ 1.02 µM). With `CCCCCC1CC(CC(=O)NC(=S)Nc2ccccc2Cl)C(=O)O1` (configuration not stated) the figure was 1.4 µg/mL (≈ 3.66 µM); with `COCCCNc1nc(N)c([N+](=O)[O-])c(NC2CCCCC2)n1`, 2.8 µg/mL (≈ 8.63 µM); with `CCN1CCC(NCCc2ccc(F)cc2)CC1`, 24.9 µg/mL (≈ 99.5 µM). The compound `Cc1cccc(OCCCCCN2CCOCC2)c1C` came in with a solubility (kinetic) of 28.6 µg/mL (≈ 103 µM).

Compound `Cn1ccnc1SCC(=O)Nc1ccc2c(c1)OCCO2` returned a kinetic solubility above 45.8 µg/mL. Next, `COc1ccc(N2CCN(c3cc(C)c4cccc(C)c4n3)CC2)cc1`: below 0.2 µg/mL; `O=C(NCCc1ccc(F)cc1)c1coc(=O)c(Br)c1`: 2.9 µg/mL (≈ 8.53 µM); `Cc1ccc(-c2cc(C(=O)O)c3ccccc3n2)s1`: above 40.4 µg/mL. With `OCCN1CCN(CC(O)C(F)(F)F)CC1` (configuration not stated) the figure was above 36.3 µg/mL; with `CCCC(=O)Nc1ccc2c(c1)nc1n2CCN(CCOC)C1`, above 47.5 µg/mL. With `Cc1[nH]c2ccccc2c1C(=O)COC(=O)C1CCC1` the figure was 24.1 µg/mL (≈ 88.8 µM). Compound `O=C1/C(=C/c2ccsc2)N2CCC1CC2` displayed a kinetic solubility of 25.9 µg/mL (≈ 118 µM). Next, `O=[N+]([O-])c1[nH]cnc1/C=C/c1ccccc1`: 1.8 µg/mL (≈ 8.36 µM); `C=CCn1c(-c2ccc(Cl)cc2)cnc1SC(C)C(N)=O` (configuration not stated): 7.1 µg/mL (≈ 22.1 µM); `CC1(CCc2ccccc2)NC(=O)N(CC(=O)Nc2c(F)cccc2F)C1=O` (configuration not stated): above 58.1 µg/mL.

The kinetic solubility is the concentration staying in solution when a stock, usually in DMSO, is diluted into the medium.

The values above are taken from PubChem BioAssay AID1996.
